Values quoted from earlier work in patent US6838238B1, “Morphatides: novel shape and structure libraries” (Invitrogen Corporation, priority 1996, dated 2005).

Conditions: ionizes by hydration to yield the tetrahedral phenylboronate anion

- pKa: 8.86
SMILES: OB(O)c1ccccc1 [Phenylboronic acid]
